Experiment [1] concerns the target T1, PPARγ (Homo sapiens, UniProt P37231).
T1 construct: gene PPARG; human PPARγ2 expressed in HEK-293 cells
T1 sequence (P37231 1-505): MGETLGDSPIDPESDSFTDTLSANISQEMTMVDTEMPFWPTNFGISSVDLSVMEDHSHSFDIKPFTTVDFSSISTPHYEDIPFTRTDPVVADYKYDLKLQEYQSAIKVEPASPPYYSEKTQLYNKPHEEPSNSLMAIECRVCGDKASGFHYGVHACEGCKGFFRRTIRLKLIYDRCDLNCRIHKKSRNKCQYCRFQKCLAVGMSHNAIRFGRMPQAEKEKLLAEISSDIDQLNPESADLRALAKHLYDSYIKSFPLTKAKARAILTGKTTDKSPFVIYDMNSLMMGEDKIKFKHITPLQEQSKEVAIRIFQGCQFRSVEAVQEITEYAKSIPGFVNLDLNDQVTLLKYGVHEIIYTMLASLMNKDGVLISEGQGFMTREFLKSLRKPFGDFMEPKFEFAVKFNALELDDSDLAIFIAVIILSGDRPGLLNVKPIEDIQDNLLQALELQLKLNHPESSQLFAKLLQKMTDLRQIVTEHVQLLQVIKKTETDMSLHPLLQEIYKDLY
The experiment in a line: 3xPPRE luciferase reporter in HEK293 cells, antagonism of Rosi activation. It counts as cell-based. For orientation: Reporter assays use an easily measured gene product as a stand-in for the process of interest.

The target of experiment [2] is T2, PPARγ (Homo sapiens, UniProt P37231).
T2 construct: gene PPARG
T2 sequence (P37231 223-505): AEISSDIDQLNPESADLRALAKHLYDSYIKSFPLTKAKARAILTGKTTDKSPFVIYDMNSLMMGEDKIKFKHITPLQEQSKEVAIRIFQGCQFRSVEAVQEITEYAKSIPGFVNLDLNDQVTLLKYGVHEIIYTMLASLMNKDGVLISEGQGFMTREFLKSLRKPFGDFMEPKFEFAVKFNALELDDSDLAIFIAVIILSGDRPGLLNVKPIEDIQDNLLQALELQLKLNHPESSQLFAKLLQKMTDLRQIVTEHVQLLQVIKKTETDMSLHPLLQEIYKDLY
Briefly: X-ray co-crystal structure at […] Å; fluorescence polarization competition binding with GST-tagged LBD. (Polarisation of emitted light reports the rotation of a fluorescent probe.)

We go through 2 compounds from publication doi:10.64898/2025.12.15.694265, “Small molecule inhibitor of PPARγ acetylation promotes insulin sensitization and browning of white adipose tissue with improved safety” (bioRxiv, 2025).

On to `O=C(Nc1ccccc1)c1cc([N+](=O)[O-])ccc1Cl` [GW, GW9662], for which the “3xPPRE luciferase reporter in HEK293 cells, antagonism of Rosi activation” value at PPARγ [1] is given as “GW9662 significantly diminished the activation of 3xPPRE reporter by Rosi”.
As for `N#Cc1c(C2CCCCC2)nc(Sc2ccc(C(F)(F)F)cc2[N+](=O)[O-])[nH]c1=O` [TPMD, 4-cyclohexyl-2-((2-nitro-4-(trifluoromethyl)phenyl)thio)-6-oxo-1,6-dihydropyrimidine-5-carbonitrile], the half-maximal inhibitory concentration (IC50) (in general, the point on the concentration scale where inhibition reaches its midpoint) at PPARγ [2] was about 5 µM.
